Test results reported in patent US20040002842A1, “Methods and systems for analyzing complex biological systems” (priority 2001, published 2004).
“Also recorded” adds a separate entry of the source.

Assays:
Arabidopsis thaliana [1] = assay: MOA1 biochemical (metabolite) profiling by LC-MS and GC-MS; details: for stress related metabolites: within one hour after spraying
Magnaporthe grisea = format: cell-based
[2] = test system: Arabidopsis thaliana plants; assay: SOA1 phenotypic analysis of herbicide-treated plants (incl. MIC/Tmic); format: in vivo; details: for leafCurling, Dev. / leafTwisting, Dev. / leafWidth, Dev. / matureLeafAnthocyanins, Dev. / matureLeafChlorosis, Dev. / matureLeafNecrosis, Dev. / newLeafAnthocyanins, Dev. / newLeafChlorosis, Dev. / newLeafNecrosis, Dev. / pointedLeaves, Dev.: herbicide sprayed on 21-day plants, numeric value standardized to mock treated; for characteristic symptoms (morphological phenotype): herbicide-treated plants; for tMic, Dev.: score for time to full symptoms at minimum inhibitory concentration
[3] = test system: Saccharomyces cerevisiae wild type strain BY4743; assay: AF1 yeast metabolite analysis by GC-MS and LC-MS; format: cell-based; details: for # Compounds perturbed by treatment: 2×MIC, two hours
[4] = test system: Saccharomyces cerevisiae wild type strain BY4743; assay: AF1 yeast gene expression analysis (microarray, KEGG pathway mapping); format: cell-based; details: p < 0.05; KEGG mapping
Experimental: Saccharomyces cerevisiae wild type strain BY4743 was purchased from American Type Culture Center (ATCC, Manassas, Va.). The yeast strain was grown in YPD or SD media. H. […] The cultures started from fresh single colonies were grown in 1.0 ml YPD overnight at 30° C. […] The OD600 was adjusted to 1.0 with YPD media, then 2.0 ml of each was inoculated into three 250 ml flasks, each containing 50 ml of SD media. […] The cells were kept growing for another two hours, then collected by centrifugation at 4000 rpm for 5 minutes at 4° C. Pellets were washed once with ice-cold water, then were lyophilized overnight at 4° C. […] Tubes were vortexed for 30 seconds, then incubated for 10 minutes at room temperature (RT). […] Tubes were incubated for 10 minutes at RT. Samples were centrifuged for 20 minutes as before. Pellets were washed with 400 μl 70% ethanol and centrifuged for 10 minutes as before. The pellet was then dissolved in 100 μl nuclease-free water. RNA quality was determined using the Bioanalyzer 2100 and the RNA 6000 assay (Agilent Technologies, Palo Alto, Calif.) according to manufacturer's instructions. RNA concentrations were determined spectrophotometrically by measuring the absorption at 260 nm in an Ultrospec 2000 (Pharmacia Biotech, Piscataway, N.J.). […] Labeled cRNAs were evaluated using the RNA 6000 assay on the Agilent Bioanalyzer 2100. Labeled cRNA concentrations were determined spectrophotometrically by measuring the absorption at 260 nm in an Ultrospec 2000 (Pharmacia Biotech, Piscataway, N.J.). […] Each pair of samples to be hybridized were independently labeled and hybridized utilizing a fluor reversal for a total of two hybridizations per sample pair. The microarrays were scanned simultaneously in the Cy3 and Cy5 channels with Agilent's 48-slide, Dual Laser DNA Microarray Scanner (Agilent Technologies, Palo Alto, Calif.) at 10 μm resolution using default settings. Image Analysis Software (Version A.4.0.45, Agilent Technologies, Palo Alto, Calif.) was used for image analysis. Each feature was determined from an array's associated pattern file and a detection algorithm. Intensity values for each feature were determined after subtracting background derived from an average of negative control features. Features with unusual pixel intensity statistics (e.g., high non-uniformity, saturation in either channel, and the like) were excluded from downstream analyses. Data was loaded into the Rosetta RESOLVER database (Rosetta Inpharmatics Inc., Kirkland, Wash.) for storage and analysis. Data was evaluated after combining results from fluor reversal replicate hybridizations. The annotation of yeast ORFs was obtained from Proteome BIOKNOWLEDGE Library (Incyte Genomics, Palo Alto, Calif.). In AF1, two different technologies were utilized: gene expression analysis (for examination of mRNA expression) and metabolite analysis. […] As noted previously, existing metabolic databases may be helpful in practicing the methods and systems of the present invention, but many databases include limitations that make their use in data analysis and pathway mapping less than straightforward. […] This caveat to KEGG makes it difficult to pinpoint the correct pathway when attempting to link a gene to a specific pathway. The pathway score indicates how meaningful the mapping is, or how likely it is to be correctly indicative of the pathway involved in the perturbation under examination. The method provides a pathway score based on perturbation levels of genes and/or compounds and the information content of each gene and/or compound in the pathway, i.e., a pathway score indicates the extent to which other pathways are mapped to a gene/compound. For example, imagine that two genes are perturbed in a particular experiment.

[5] = test system: Saccharomyces cerevisiae wild type strain BY4743; assay: AF1 combined gene expression and metabolite data (reactions, pathways, cluster analysis); format: cell-based
Description: The data were then combined to determine the number of reactions showing an enzyme and at least one compound perturbed, and to determine the number of pathways having at least one enzyme and one perturbed compound perturbed. The results of the analysis are represented in Tables 16 and 17, and were difficult to interpret, illustrating that the ability to draw conclusions from compound mapping to pathways is limited when absent additional data. […] A coherent data set was created from data obtained from the four above-described drug compounds. The data were reduced by using principle components analysis and cluster analysis.

Arabidopsis thaliana [6] = assay: MOA1 gene expression profiling (22,000 gene array); details: 1 hr; for No. of Lethal Genes Altered: regulated genes compared to list of essential (lethal) genes

## O=C(O)CNCP(=O)(O)O [Glyphosate]
Arabidopsis thaliana [1]; after one hour
  tyrosine level relative to the control: decreased
Magnaporthe grisea
  Growth of M. grisea, Tiers 3 and 4 media: nearly identical as compared to Unknown 4; also recorded: inhibited growth of M. grisea when nitrate, nitrite, or glutamate was provided as the sole nitrogen source
Magnaporthe grisea; glyphosate at 1.0 mg/ml
  Growth inhibition of M. grisea: remediated by inclusion of aromatic amino acids to the media
[2]
  leafCurling, Dev.: 0
  leafTwisting, Dev.: 0
  leafWidth, Dev.: 0
  matureLeafAnthocyanins, Dev.: 3
  matureLeafChlorosis, Dev.: 1
  matureLeafNecrosis, Dev.: 3
  newLeafAnthocyanins, Dev.: 1
  newLeafChlorosis, Dev.: 2
  newLeafNecrosis, Dev.: 0
  pointedLeaves, Dev.: 1
  characteristic symptoms (morphological phenotype): anthocyanin accumulation in the older leaves accompanied by chlorosis of the newly emerging leaves
  tMic, Dev.: 2

## OC(Cn1cncn1)(Cn1cncn1)c1ccc(F)cc1F [Fluconazole]
[3]; P < 0.05
  # Compounds perturbed by treatment: 2
[3]; P < 0.1
  # Compounds perturbed by treatment: 6
[3]; Platform GC
  Fold Change: TMS mevalonic acid lactone: 0.1434
  Fold Change: squalene: 0.1999
  Fold Change: sugar?: 0.4817
  Fold Change: tetradecanoic acid: 0.07967
  Fold Change: threonine2: 0.5053
  Fold Change: threonine3: 0.2513
  Fold Change: tms glutamine3: 0.7271
  Fold Change: tms lysine4: 0.3657
  Fold Change: tms tyrosine2: 0.8643
  Fold Change: tms tyrosine3: 0.3321
  Fold Change: valine: 0.2727
[3]; Platform nLC
  Fold Change, benzoic acid: 0
  Fold Change: retinoic acid: 0
  Fold Change: salicylic/HObenzoic: 0
  Fold Change: selenoDLmethionine: −0.5748
  Fold Change: serine: 0.3936
  Fold Change: shikimic acid: 0
  Fold Change: sinapinic acid: 0
  Fold Change: sorbitol/mannitol: 0.365
  Fold Change: succinic: 0.3094
  Fold Change: sucrose: 0.3104
  Fold Change: sugar-phosphate: −0.05306
  Fold Change: tetradecanoic acid: 0.5495
  Fold Change: threonine/homoserin: 0.3257
  Fold Change: thymine: 0
  Fold Change: tryptophan: 1.649
  Fold Change: tyrosine: 0.2303
  Fold Change: uracil: 1.256
  Fold Change: uridine: 0.3463
  Fold Change: urocanic acid: 0
  Fold Change: valine: 0.3235
  Fold Change: xanthosineDiH2O: 0
  Fold Change: zeatin: 0
[3]; Platform pLC
  Fold Change: riboflavin: 0
  Fold Change: selenoDLmethionine: −0.6865
  Fold Change: serine: 0.11
  Fold Change: sugar-phosphate: 0
  Fold Change: thiamine: 0
  Fold Change: threonine/homoserin: 0.1604
  Fold Change: thymine: 0
  Fold Change: tryptophan: 0
  Fold Change: tyrosine: 0.1099
  Fold Change: uric acid: 0
  Fold Change: urocanic acid: 0
  Fold Change: xanthosine(diH2O): 0
  Fold Change: zeatin: 0
[4]
  Number of Pathways Affected by at Least One Gene, # Pathways: 79
[5]
  Number of Reactions Having an Enzyme and at Least One Compound Perturbed, # Reactions: 2

## CP(=O)(O)CCC(N)C(=O)O (stereo not drawn) [Glufosinate]
Arabidopsis thaliana [1]
  stress related metabolites: Only a few, if any
Magnaporthe grisea; in the presence of glufosinate
  Nitrogen source utilization by M. grisea: only able to utilize glutamine and glutamate as nitrogen sources
Arabidopsis thaliana [6]; p < 0.5
  Regulated Genes Following Herbicide Treatment: Down: 54
  Regulated Genes Following Herbicide Treatment: Up: 296
Arabidopsis thaliana [6]
  No. of Lethal Genes Altered: 10
[2]
  leafCurling, Dev.: 2
  leafTwisting, Dev.: 1
  leafWidth, Dev.: −2
  matureLeafAnthocyanins, Dev.: 0
  matureLeafChlorosis, Dev.: 3
  matureLeafNecrosis, Dev.: 0
  newLeafAnthocyanins, Dev.: 0
  newLeafChlorosis, Dev.: 3
  newLeafNecrosis, Dev.: 0
  pointedLeaves, Dev.: 1
  characteristic symptoms (morphological phenotype): Chlorosis and leaf curling
  tMic, Dev.: 1

## CC(C)C1(C)N=C(c2ncccc2C(=O)O)NC1=O (stereo not drawn) [Imazapyr]
Arabidopsis thaliana [1]
  stress related metabolites: Only a few, if any
[2]
  characteristic symptoms (morphological phenotype): anthocyanin accumulation in the older leaves accompanied by chlorosis of the newly emerging leaves

## CS(=O)(=O)c1cc(C(F)(F)F)ccc1C(=O)c1cnoc1C1CC1 [Isoxaflutole]
Arabidopsis thaliana [1]; early time points
  Alpha-tocopherol level relative to the control: not significantly changed
Arabidopsis thaliana [1]; metabolite data, early time points (1 hr)
  tyrosine and phenylalanine level relative to the control: up-regulated; also recorded: began to accumulate relative to the control after one hour
Magnaporthe grisea; concentrations insufficient to inhibit growth
  Growth of M. grisea in minimal plus tyrosine and minimal media: inhibited in minimal plus tyrosine media, while growth in minimal media was unaffected
Arabidopsis thaliana [6]
  alterations in the expression of genes of the homogentisate biosynthetic pathway: not observed
  No. of Lethal Genes Altered: 15
Arabidopsis thaliana [6]; p < 0.5
  Regulated Genes Following Herbicide Treatment: Down: 370
